The record followed here is US7368567B2, “Arylsulfonyl benzodioxanes, benzoxazines and benzothiazines as 5-HT6 antagonists” (Roche Palo Alto LLC, priority 2004, dated 2008).

The structures appear in SMILES notation.

`CNCC1COc2ccc(S(=O)(=O)c3ccccc3)cc2O1` (racemic) [Compound 1, (+−)-(7-Benzenesulfonyl-2,3-dihydro-benzo[1,4]dioxin-2-ylmethyl)-methyl-amine] came in with a melting point of 198 to 199.4 °C.
`O=S(=O)(c1cccc(F)c1)c1ccc2c(c1)O[C@H](CN1CC1)CO2` (stereo in doubt) had a melting point of 215.4 to 217.2 °C.
`O=S(=O)(c1ccccc1)c1ccc2c(c1)O[C@@H](CN1CC1)CO2` (stereo in doubt) returned a melting point of 203.9 to 206.6 °C.
To `O=S(=O)(c1cccc(F)c1)c1ccc2c(c1)O[C@@H](CNCc1ccccc1)CO2` (stereo in doubt) [Compound 11, Benzyl-[7-(3-fluoro-benzenesulfonyl)-2,3-dihydro-benzo[1,4]dioxin-2-ylmethyl]-amine] belongs 195.1 to 197.1 °C; to `CNC[C@H]1COc2ccc(S(=O)(=O)c3ccc(C)cc3)cc2O1` (stereo in doubt) [Compound 12, Methyl-[7-(toluene-4-sulfonyl)-2,3-dihydro-benzo[1,4]dioxin-2-ylmethyl]-amine], 213 to 214.1 °C.
On to `CCNC[C@@H]1COc2ccc(S(=O)(=O)c3cccc(F)c3)cc2O1` (stereo in doubt) [Compound 13, Ethyl-[7-(3-fluoro-benzenesulfonyl)-2,3-dihydro-benzo[1,4]dioxin-2-ylmethyl]-amine], for which the melting point fell in the range of 247.5 to 251.3 °C.
To `CN(C)C[C@@H]1COc2ccc(S(=O)(=O)c3cccc(F)c3)cc2O1` (stereo in doubt) [Compound 14, [7-(3-Fluoro-benzenesulfonyl)-2,3-dihydro-benzo[1,4]dioxin-2-ylmethyl]-dimethyl-amine] belongs 228.7 to 231.3 °C; to `CC(C)NC[C@@H]1COc2ccc(S(=O)(=O)c3cccc(F)c3)cc2O1` (stereo in doubt) [Compound 15, [7-(3-Fluoro-benzenesulfonyl)-2,3-dihydro-benzo[1,4]dioxin-2-ylmethyl]-isopropyl-amine], 242.4 to 243.8 °C.
To `O=S(=O)(c1cccc(F)c1)c1ccc2c(c1)O[C@H](CN1CCC1)CO2` (stereo in doubt) [Compound 16, 1-[7-(3-Fluoro-benzenesulfonyl)-2,3-dihydro-benzo[1,4]dioxin-2-ylmethyl]-azetidine] belongs 100.8 to 108.3 °C; to `COCCNC[C@@H]1COc2ccc(S(=O)(=O)c3cccc(F)c3)cc2O1` (stereo in doubt) [Compound 17, [7-(3-Fluoro-benzenesulfonyl)-2,3-dihydro-benzo[1,4]dioxin-2-ylmethyl]-(2-methoxy-ethyl)-amine], 193 to 196.9 °C.
`O=S(=O)(c1ccccc1)c1ccc2c(c1)O[C@@H](CNCc1ccccc1)CO2` (stereo in doubt) [Compound 21, (7-Benzenesulfonyl-2,3-dihydro-benzo[1,4]dioxin-2-ylmethyl)-benzyl-amine]: the melting point fell in the range of 220.9 to 224.9 °C.
As to `CN(C)C[C@H]1COc2ccc(S(=O)(=O)c3ccccc3)cc2O1` (stereo in doubt) [Compound 23, (7-Benzenesulfonyl-2,3-dihydro-benzo[1,4]dioxin-2-ylmethyl)-dimethyl-amine], the melting point was in the range of 232 to 233.5 °C.
Molecule `CC(C)NC[C@H]1COc2ccc(S(=O)(=O)c3ccccc3)cc2O1` (stereo in doubt) [Compound 24, (7-Benzenesulfonyl-2,3-dihydro-benzo[1,4]dioxin-2-ylmethyl)-isopropyl-amine] yielded a melting point of 224.9 to 228.8 °C.
Regarding `COCCNC[C@H]1COc2ccc(S(=O)(=O)c3ccccc3)cc2O1` (stereo in doubt) [Compound 26, (7-Benzenesulfonyl-2,3-dihydro-benzo[1,4]dioxin-2-ylmethyl)-(2-methoxy-ethyl)-amine], the melting point was in the range of 169.3 to 171.9 °C.
For `CCNC[C@H]1COc2ccc(S(=O)(=O)c3ccccc3)cc2O1` (stereo in doubt) [Compound 27, (7-Benzenesulfonyl-2,3-dihydro-benzo[1,4]dioxin-2-ylmethyl)-ethyl-amine] the value was 242.2 to 246.7 °C; for `CNC[C@@H]1COc2ccc(S(=O)(=O)c3cccc(C)c3)cc2O1` (stereo in doubt) [Compound 28, Methyl-[7-(toluene-3-sulfonyl)-2,3-dihydro-benzo[1,4]dioxin-2-ylmethyl]-amine], 99.9 to 106.1 °C; for `CNC[C@@H]1COc2ccc(S(=O)(=O)c3ccccc3C)cc2O1` (stereo in doubt) [Compound 29, Methyl-[7-(toluene-2-sulfonyl)-2,3-dihydro-benzo[1,4]dioxin-2-ylmethyl]-amine], 169 to 170.8 °C.
`O=S(=O)(c1ccccc1)c1ccc2c(c1)O[C@@H](CN1CCNCC1)CO2` (stereo in doubt) [Compound 30, 1-(7-Benzenesulfonyl-2,3-dihydro-benzo[1,4]dioxin-2-ylmethyl)-piperazine] gave a melting point of 279.2 to 279.4 °C.
To `N=C(N)NC[C@H]1COc2ccc(S(=O)(=O)c3ccccc3)cc2O1` (stereo in doubt) [Compound 31, N-(7-Benzenesulfonyl-2,3-dihydro-benzo[1,4]dioxin-2-ylmethyl)-guanidine] belongs 126.5 to 128.3 °C; to `CN(O)C[C@H]1COc2ccc(S(=O)(=O)c3ccccc3)cc2O1` (stereo in doubt) [Compound 33, N-(7-Benzenesulfonyl-2,3-dihydro-benzo[1,4]dioxin-2-ylmethyl)-N-methylhydroxylamine], 199.2 to 200.8 °C.
For `O=S(=O)(c1ccccc1)c1ccc2c(c1)O[C@@H](Cn1ccnc1)CO2` (stereo in doubt) [Compound 34, 1-(7-Benzenesulfonyl-2,3-dihydro-benzo[1,4]dioxin-2-ylmethyl)-1H-imidazole] the value was 88 to 90 °C; for `O=S(=O)(c1ccccc1)c1ccc2c(c1)O[C@@H](CN1CCC(O)C1)CO2` (stereo in doubt) [Compound 37, 1-(7-Benzenesulfonyl-2,3-dihydro-benzo[1,4]dioxin-2-ylmethyl)-pyrrolidin-3-ol], 94.7 to 96.4 °C.
To `CNC[C@H]1COc2ccc(S(=O)(=O)c3cccc(C#N)c3)cc2O1` (stereo in doubt) [Compound 38, 3-(3-Methylaminomethyl-2,3-dihydro-benzo[1,4]dioxine-6-sulfonyl)-benzonitrile] belongs 190.6 to 192.1 °C.
The molecule `NC(=O)NC[C@H]1COc2ccc(S(=O)(=O)c3ccccc3)cc2O1` (stereo in doubt) [Compound 40, (7-Benzenesulfonyl-2,3-dihydro-benzo[1,4]dioxin-2-ylmethyl)-urea] came in with a melting point of 104.9 to 105.7 °C.
With `CNC[C@H]1COc2ccc(S(=O)(=O)c3ccccc3)cc2O1` [Compound 2, (7-Benzenesulfonyl-2,3-dihydro-benzo[1,4]dioxin-2--(S)-ylmethyl)-methyl-amine], the melting point fell in the range of 240 to 243.6 °C.
As to `CNC[C@@H]1COc2cc(S(=O)(=O)c3ccccc3)ccc2O1` [Compound 4, (6-Benzenesulfonyl-2,3-dihydro-benzo[1,4]dioxin-2-(R)-ylmethyl)-methyl-amine], the melting point was in the range of 219.7 to 225.4 °C.
To `CNC[C@H]1COc2cc(S(=O)(=O)c3ccccc3)ccc2O1` [Compound 5, (6-Benzenesulfonyl-2,3-dihydro-benzo[1,4]dioxin-2-(S)-ylmethyl)-methyl-amine] belongs 218.2 to 220.5 °C.
To `CNC[C@@H]1COc2ccc(S(=O)(=O)c3cccc(F)c3)cc2O1` [Compound 8, [7-(3-Fluoro-benzenesulfonyl)-2,3-dihydro-benzo[1,4]dioxin-2-(R)-ylmethyl]-methyl-amine] belongs 250.1 to 254.3 °C.
For `NC[C@H]1COc2ccc(S(=O)(=O)c3cccc(F)c3)cc2O1` [Compound 9, C-[7-(3-Fluoro-benzenesulfonyl)-2,3-dihydro-benzo[1,4]dioxin-2-(S)-yl]-methylamine] the value was 224.9 to 227.9 °C.
Turning to `O=S(=O)(c1ccccc1)c1ccc2c(c1)O[C@H](CN1CCCC1)CO2` [Compound 10, 1-(7-Benzenesulfonyl-2,3-dihydro-benzol[1,4]dioxin-2-(R)-ylmethyl)-pyrrolidine], the melting point was 75.8 to 112.7 °C.

For orientation: melting point means the temperature, or range, at which the solid turns liquid.
